What was measured:
hCPT2 = target: T1, hCPT2 (Homo sapiens, UniProt P23786); test: hCPT2 inhibition (spectrophotometric DTNB CPT activity assay); type: biochemical; settings: human CPT2 expressed in P. pastoris, cell extract; carnitine 500 μM, palmitoyl-CoA 80 μM, DTNB 300 μM
T1 construct: made in house; host or cells: Pichia pastoris strain X-33 (pGAPZB/pGAPZA), crude cell-free extract
T1 sequence (P23786 26-658): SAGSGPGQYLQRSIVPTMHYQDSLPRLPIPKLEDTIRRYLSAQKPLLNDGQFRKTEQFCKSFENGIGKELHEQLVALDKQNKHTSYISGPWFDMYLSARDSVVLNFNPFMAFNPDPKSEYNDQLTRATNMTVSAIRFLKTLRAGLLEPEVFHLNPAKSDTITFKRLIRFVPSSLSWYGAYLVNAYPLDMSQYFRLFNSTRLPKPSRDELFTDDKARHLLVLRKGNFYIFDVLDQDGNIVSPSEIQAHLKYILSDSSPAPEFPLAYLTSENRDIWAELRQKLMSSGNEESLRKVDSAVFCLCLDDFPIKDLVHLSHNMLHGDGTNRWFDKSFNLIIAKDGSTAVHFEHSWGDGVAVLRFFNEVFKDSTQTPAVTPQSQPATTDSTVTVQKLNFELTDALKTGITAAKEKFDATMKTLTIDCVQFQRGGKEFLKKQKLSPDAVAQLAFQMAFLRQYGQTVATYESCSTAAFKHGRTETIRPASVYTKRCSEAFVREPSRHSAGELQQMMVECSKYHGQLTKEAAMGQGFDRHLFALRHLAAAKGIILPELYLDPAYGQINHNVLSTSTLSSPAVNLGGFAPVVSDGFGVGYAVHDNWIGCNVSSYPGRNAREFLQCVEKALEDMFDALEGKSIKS
Protocol: (§1) The following tests were carried out in order to determine the activity of the compounds of the present invention. Background information on the performed assays can be found in: Jackson et al., 1999, Biochem. J. 341, 483-489 and Jackson et al., 2000, J. Biol. Chem. 275, 19560-19566.
(§2) Human and rat CPT2- and liver CPT1 cDNAs, and human muscle CPT1 cDNA were subcloned in pGAPZB or pGAPZA, respectively. These plasmids were used to transform P. pastoris strain X-33 via electroporation after the preparation of electrocompetent cells. High copy number clones were selected where necessary using 0.5 or 1 mg/ml Zeocin. Cultures for activity measurements were induced for 16 h in YPD medium (1% yeast extract, 2% peptone, 2% glucose). Crude cell extracts were prepared by disrupting the cells with glass beads or French Press, depending on fermenter sizes. After centrifugation, the cell-free extracts were resuspended in cell breaking buffer (50 mM Tris, pH7.4, 100 mM KCl, 1 mM EDTA) in the presence of a protease inhibitor cocktail, before aliquoting and freezing at −20° C.
(§3) CPT activity was measured using a spectrophotometric assay using 5,5′-dithio-bis-(2-nitrobenzoic acid) (DTNB) also called Ellman's reagent. The HS-CoA released on the formation of acylcarnitine from carnitine (500 μM) and palmitoyl-CoA (80 μM) reduced DTNB (300 μM) forming 5-mercapto-2-nitrobenzoic acid which absorbed at 410 nm with a molar extinction coefficient of 13600 M^−1 cm^−1. The assay buffer contained 120 mM KCl, 25 mM Tris, pH 7.4, 1 mM EDTA. This assay was used for the identification of CPT inhibitors, particularly/preferentially CPT2-selective inhibitors, versus the liver and muscle CPT1 isoforms.

hL-CPT1 = target: T2, hL-CPT1 (Homo sapiens, UniProt P50416); test: hL-CPT1 inhibition (spectrophotometric DTNB CPT activity assay); type: biochemical; settings: human liver CPT1 expressed in P. pastoris, cell extract; carnitine 500 μM, palmitoyl-CoA 80 μM, DTNB 300 μM
T2 construct: made in house; host or cells: Pichia pastoris strain X-33 (pGAPZB/pGAPZA), crude cell-free extract
T2 sequence (P50416 1-773): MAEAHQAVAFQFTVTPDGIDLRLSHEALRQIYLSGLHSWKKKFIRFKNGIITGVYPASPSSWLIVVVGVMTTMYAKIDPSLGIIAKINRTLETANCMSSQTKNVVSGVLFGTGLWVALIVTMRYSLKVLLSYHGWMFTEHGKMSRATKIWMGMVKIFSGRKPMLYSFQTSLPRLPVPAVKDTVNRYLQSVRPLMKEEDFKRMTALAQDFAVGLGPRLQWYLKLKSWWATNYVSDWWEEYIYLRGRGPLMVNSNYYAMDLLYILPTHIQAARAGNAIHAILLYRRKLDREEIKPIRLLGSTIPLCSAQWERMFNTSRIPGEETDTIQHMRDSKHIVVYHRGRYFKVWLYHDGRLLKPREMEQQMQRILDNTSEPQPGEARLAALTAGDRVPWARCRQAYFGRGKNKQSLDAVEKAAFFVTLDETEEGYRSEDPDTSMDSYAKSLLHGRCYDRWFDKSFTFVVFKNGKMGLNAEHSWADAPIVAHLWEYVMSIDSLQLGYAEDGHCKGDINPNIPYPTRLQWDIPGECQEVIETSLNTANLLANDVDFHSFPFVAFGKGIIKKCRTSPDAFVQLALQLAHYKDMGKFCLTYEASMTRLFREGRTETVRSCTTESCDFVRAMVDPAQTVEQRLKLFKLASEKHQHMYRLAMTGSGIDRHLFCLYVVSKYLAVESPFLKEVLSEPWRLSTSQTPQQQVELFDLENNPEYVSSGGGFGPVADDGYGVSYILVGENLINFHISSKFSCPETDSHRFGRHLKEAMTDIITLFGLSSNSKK
Protocol: as §1, §2, §3

IC50 (hCPT2)	IC50 (hL-CPT1)	Structure (SMILES)
16.6 nM	427 nM	C[N+](C)(C)C[C@@H](CC(=O)[O-])NC(=O)CCCCCCCCCCCc1ccccc1 [Example 34, (R)-3-(12-Phenyl-dodecanoylamino)-4-trimethylammonio-butyrate]
20.2 nM	854 nM	C[N+](C)(C)C[C@@H](CC(=O)[O-])NC(=O)CCCCCCCCCc1ccsc1 [Example 28, (R)-3-(10-Thiophen-3-yl-decanoylamino)-4-trimethylammonio-butyrate]
21.2 nM	3980 nM	C[N+](C)(C)C[C@@H](CC(=O)[O-])NC(=O)CCCCCCCCCc1cccc2ccccc12 [Example 24, (R)-3-(10-Naphthalen-1-yl-decanoylamino)-4-trimethylammonio-butyrate]
14.5 nM	621 nM	C[N+](C)(C)C[C@@H](CC(=O)[O-])NC(=O)CCCCCCCCCc1ccccc1 [Example 18, (R)-3-(10-Phenyl-decanoylamino)-4-trimethylammonio-butyrate]
1.2 nM	1090 nM	C[N+](C)(C)C[C@@H](CC(=O)[O-])NC(=O)CCCCCCCOCc1ccc(-c2ccccc2)cc1 [Example 9, (R)-3-[8-(Biphenyl-4-ylmethoxy)-octanoylamino]-4-trimethylammonio-butyrate]
538 nM	1380 nM	C[N+](C)(C)C[C@@H](CC(=O)[O-])NC(=O)CCCCCCCc1ccccc1 [Example 31, (R)-3-(8-phenyl-octanoylamino)-4-trimethylammonio-butyrate]
29.4 nM	3250 nM	C[N+](C)(C)C[C@@H](CC(=O)[O-])NC(=O)CCCCCCCOCc1cccc(F)c1 [Example 15, (R)-3-[8-(3-Fluoro-benzyloxy)-octanoylamino]-4-trimethylammonio-butyrate]
246 nM	2370 nM	C[N+](C)(C)C[C@@H](CC(=O)[O-])NC(=O)CCCCCCCCc1ccccc1 [Example 32, (R)-3-(9-Phenyl-nonanoylamino)-4-trimethylammonio-butyrate]
125 nM	5630 nM	C[N+](C)(C)C[C@@H](CC(=O)[O-])NC(=O)CCCCCCCOCc1cc(F)ccc1F [Example 2, (R)-3-[8-(2,5-Difluoro-benzyloxy)-octanoylamino]-4-trimethylammonio-butyrate]
41 nM	> 10000 nM	C[N+](C)(C)C[C@@H](CC(=O)[O-])NC(=O)CCCCCCCOCc1cccc2ccccc12 [Example 12, (R)-3-[8-(Naphthalen-1-ylmethoxy)-octanoylamino]-4-trimethylammonio-butyrate]
73.2 nM	2190 nM	C[N+](C)(C)C[C@@H](CC(=O)[O-])NC(=O)CCCCCCCOCc1ccc(F)c(F)c1 [Example 1, (R)-3-[8-(3,4-Difluoro-benzyloxy)-octanoylamino]-4-trimethylammonio-butyrate]
125 nM	3070 nM	C[N+](C)(C)C[C@@H](CC(=O)[O-])NC(=O)CCCCCCCCCc1ccc(C(F)(F)F)cc1 [Example 25, (R)-4-Trimethylammonio-3-[10-(4-trifluoromethyl-phenyl)-decanoylamino]-butyrate]
32.3 nM	2250 nM	C[N+](C)(C)C[C@@H](CC(=O)[O-])NC(=O)CCCCCCCOCc1ccc(C(F)(F)F)c(F)c1 [Example 7, (R)-3-[8-(3-Fluoro-4-trifluoromethyl-benzyloxy)-octanoylamino]-4-trimethylammonio-butyrate]
298 nM	1120 nM	C[N+](C)(C)C[C@@H](CC(=O)[O-])NC(=O)CCCCCCCOCc1ccc(F)cc1F [Example 3, (R)-3-[8-(2,4-Difluoro-benzyloxy)-octanoylamino]-4-trimethylammonio-butyrate]
53.7 nM	7190 nM	COc1ccc(COCCCCCCCC(=O)N[C@H](CC(=O)[O-])C[N+](C)(C)C)cc1 [Example 8, (R)-3-[8-(4-Methoxy-benzyloxy)-octanoylamino]-4-trimethylammonio-butyrate]
8.1 nM	1820 nM	C[N+](C)(C)C[C@@H](CC(=O)[O-])NC(=O)CCCCCCCCCc1cccc(F)c1 [Example 26, (R)-3-[10-(3-Fluoro-phenyl)-decanoylamino]-4-trimethylammonio-butyrate]
486 nM	6080 nM	C[N+](C)(C)C[C@@H](CC(=O)[O-])NC(=O)CCCCCCCCCCc1ccccc1 [Example 33, (R)-3-(11-Phenyl-undecanoylamino)-4-trimethylammonio-butyrate]
32.1 nM	4340 nM	C[N+](C)(C)C[C@@H](CC(=O)[O-])NC(=O)CCCCCCCOCc1ccc(C(F)(F)F)cc1 [Example 6, (R)-3-[8-(4-Trifluoromethyl-benzyloxy)-octanoylamino]-4-trimethylammonio-butyrate]

— patent publication US8349893B2, “4-trimethylammonio-butyrates as CPT2 inhibitors” (Hoffmann-La Roche Inc., priority 2008, dated 2013)
